≈ marks a conversion by molar mass, not a printed value.
Columns and labels:
Format in all cases: functional
Candida albicans [1] = test: Antifungal activity against Candida albicans SC5314 incubated for 24 hrs by CLSI protocol based microbroth dilution method; settings: SC5314, 24 h
Cryptococcus neoformans = test: Antifungal activity against Cryptococcus neoformans CGMCC2.3161 measured at 72 hrs by CLSI protocol based microbroth dilution method; settings: CGMCC2.3161, 72 h
Aspergillus fumigatus = test: Antifungal activity against Aspergillus fumigatus CGMCC 3.7795 measured at 72 hrs by CLSI protocol based microbroth dilution method; settings: CGMCC 3.7795, 72 h
Candida albicans [2] = test: Antifungal activity against Candida albicans CPCC400616 measured at 24 hrs by CLSI protocol based microbroth dilution method; settings: CPCC400616, 24 h
[Candida] zeylanoides = Antifungal activity against Candida zeylanoides CGMCC2.3739 measured at 24 hrs by CLSI protocol based microbroth dilution method; settings: Dujonia zeylanoides, CGMCC2.3739, 24 h
Candida albicans [3] = test: Antifungal activity against fluconazole-resistant Candida albicans isolate 100 incubated for 24 hrs by CLSI protocol based microbroth dilution method; settings: isolate 100, 24 h
Candida albicans [4] = test: Antifungal activity against fluconazole-resistant Candida albicans CaR incubated for 24 hrs by CLSI protocol based microbroth dilution method
Candida albicans [5] = test: Antifungal activity against fluconazole-resistant Candida albicans isolate 103 incubated for 24 hrs by CLSI protocol based microbroth dilution method; settings: isolate 103, 24 h
Candida albicans [6] = test: Antifungal activity against fluconazole-resistant Candida albicans isolate 17 incubated for 24 hrs by CLSI protocol based microbroth dilution method; settings: isolate 17, 24 h

SMILES | MIC90 (Candida albicans [1]) [µg/mL] | MIC90 (Cryptococcus neoformans) [µg/mL] | MIC90 (Aspergillus fumigatus) [µg/mL] | MIC90 (Candida albicans [2]) [µg/mL] | MIC90 ([Candida] zeylanoides) [µg/mL] | MIC90 (Candida albicans [3]) [µg/mL] | MIC90 (Candida albicans [4]) [µg/mL] | MIC90 (Candida albicans [5]) [µg/mL] | MIC90 (Candida albicans [6]) [µg/mL]
NNC(=S)NN | 64 (≈ 603 µM) | 64 (≈ 603 µM) | > 128 | 32 (≈ 301 µM) | 64 (≈ 603 µM) | – | – | – | –
Cc1ccc2c(c1)/C(=N/NC(=S)Nc1ccccc1)CC[Se]2 | 64 (≈ 171 µM) | 16 (≈ 42.7 µM) | > 128 | 64 (≈ 171 µM) | > 128 | – | – | – | –
Cc1ccc2c(c1)/C(=N/NC(=S)NN)CC[Se]2 | 8 (≈ 25.5 µM) | 4 (≈ 12.8 µM) | > 128 | 8 (≈ 25.5 µM) | > 128 | – | – | – | –
CCc1ccccc1NC(=O)N/N=C1\CC[Se]c2ccc(C)cc21 | 64 (≈ 166 µM) | 4 (≈ 10.4 µM) | > 128 | 64 (≈ 166 µM) | 16 (≈ 41.4 µM) | – | – | – | –
COc1cccc(NC(=S)N/N=C2\CC[Se]c3ccc(C)cc32)c1 | 64 (≈ 158 µM) | 32 (≈ 79.1 µM) | > 128 | 64 (≈ 158 µM) | > 128 | – | – | – | –
Cc1ccc2c(c1)/C(=N/NC(=O)Nc1cccc(Br)c1)CC[Se]2 | > 128 | > 128 | > 128 | > 128 | > 128 | – | – | – | –
O=C1CC[Se]c2ccc(F)cc21 | 4 (≈ 17.5 µM) | > 128 | > 128 | 16 (≈ 69.8 µM) | > 128 | – | – | – | –
COc1ccc(OC)c(NC(=S)N/N=C2\CC[Se]c3ccc(F)cc32)c1 | 2 (≈ 4.56 µM) | 4 (≈ 9.12 µM) | 64 (≈ 146 µM) | 8 (≈ 18.2 µM) | 4 (≈ 9.12 µM) | 2 (≈ 4.56 µM) | 4 (≈ 9.12 µM) | 4 (≈ 9.12 µM) | 2 (≈ 4.56 µM)
COc1ccc(OC)c(NC(=S)N/N=C2\CC[Se]c3ccccc32)c1 | 4 (≈ 9.51 µM) | 2 (≈ 4.76 µM) | > 128 | 8 (≈ 19 µM) | 32 (≈ 76.1 µM) | – | – | – | –
Cc1ccc(NC(=S)N/N=C2\CC[Se]c3ccc(F)cc32)cc1 | 32 (≈ 81.6 µM) | 2 (≈ 5.1 µM) | > 128 | 8 (≈ 20.4 µM) | 16 (≈ 40.8 µM) | – | – | – | –
CCc1ccccc1NC(=O)NN | 32 (≈ 179 µM) | 32 (≈ 179 µM) | > 128 | 64 (≈ 357 µM) | 64 (≈ 357 µM) | – | – | – | –
Cc1ccc(C)c(NC(=O)N/N=C2\CC[Se]c3ccc(F)cc32)c1 | 4 (≈ 10.2 µM) | > 128 | > 128 | 8 (≈ 20.5 µM) | > 128 | – | – | – | –
Cc1ccc(C)c(NC(=O)N/N=C2\CC[Se]c3ccc(C)cc32)c1 | 64 (≈ 166 µM) | 64 (≈ 166 µM) | > 128 | 64 (≈ 166 µM) | > 128 | – | – | – | –
O=C(N/N=C1\CC[Se]c2ccc(F)cc21)Nc1cc(Cl)cc(Cl)c1 | > 128 | > 128 | > 128 | > 128 | > 128 | – | – | – | –
O=C1CC[Se]c2ccccc21 | 4 (≈ 18.9 µM) | 8 (≈ 37.9 µM) | > 128 | 64 (≈ 303 µM) | > 128 | – | – | – | –
CCOc1ccc(NC(=O)N/N=C2\CC[Se]c3ccc(C)cc32)cc1 | 8 (≈ 19.9 µM) | 32 (≈ 79.5 µM) | > 128 | 64 (≈ 159 µM) | > 128 | – | – | – | –
Cc1ccc(C)c(NC(=S)N/N=C2\CC[Se]c3ccc(F)cc32)c1 | 32 (≈ 78.7 µM) | 16 (≈ 39.4 µM) | > 128 | 8 (≈ 19.7 µM) | > 128 | – | – | – | –
O=C(N/N=C1\CC[Se]c2ccc(F)cc21)Nc1ccccc1Cl | 2 (≈ 5.04 µM) | 16 (≈ 40.3 µM) | > 128 | 8 (≈ 20.2 µM) | 8 (≈ 20.2 µM) | – | – | – | –
NNC(=S)Nc1ccccc1 | > 128 | 64 (≈ 383 µM) | > 128 | 64 (≈ 383 µM) | > 128 | – | – | – | –
NNC(=S)N/N=C1\CC[Se]c2ccc(F)cc21 | 4 (≈ 12.6 µM) | 4 (≈ 12.6 µM) | > 128 | 2 (≈ 6.3 µM) | 64 (≈ 202 µM) | 4 (≈ 12.6 µM) | 8 (≈ 25.2 µM) | 2 (≈ 6.3 µM) | 8 (≈ 25.2 µM)

SMILES | MIC90 (Candida albicans [1]) [µg/mL] | MIC90 (Cryptococcus neoformans) [µg/mL] | MIC90 (Aspergillus fumigatus) [µg/mL] | MIC90 (Candida albicans [2]) [µg/mL] | MIC90 ([Candida] zeylanoides) [µg/mL] | MIC90 (Candida albicans [3]) [µg/mL] | MIC90 (Candida albicans [4]) [µg/mL] | MIC90 (Candida albicans [5]) [µg/mL] | MIC90 (Candida albicans [6]) [µg/mL]
Cc1ccc2c(c1)C(=O)CC[Se]2 | 4 (≈ 17.8 µM) | > 128 | > 128 | 32 (≈ 142 µM) | > 128 | – | – | – | –
CCc1ccccc1NC(=O)N/N=C1\CC[Se]c2ccc(F)cc21 | 8 (≈ 20.5 µM) | > 128 | > 128 | 8 (≈ 20.5 µM) | > 128 | – | – | – | –
Fc1ccc2c(c1)/C(=N/NC(=S)Nc1ccccc1)CC[Se]2 | 2 (≈ 5.29 µM) | 2 (≈ 5.29 µM) | > 128 | 0.25 (≈ 0.661 µM) | 8 (≈ 21.1 µM) | 0.5 (≈ 1.32 µM) | 2 (≈ 5.29 µM) | 0.5 (≈ 1.32 µM) | 2 (≈ 5.29 µM)
S=C(N/N=C1\CC[Se]c2ccccc21)Nc1ccccc1 | 4 (≈ 11.1 µM) | 8 (≈ 22.2 µM) | > 128 | 0.5 (≈ 1.39 µM) | 1 (≈ 2.78 µM) | 32 (≈ 88.8 µM) | 64 (≈ 178 µM) | > 128 | 4 (≈ 11.1 µM)
Cc1ccc(C)c(NC(=S)N/N=C2\CC[Se]c3ccccc32)c1 | 8 (≈ 20.6 µM) | 16 (≈ 41.2 µM) | > 128 | 16 (≈ 41.2 µM) | 128 (≈ 330 µM) | – | – | – | –
Cc1ccc2c(c1)/C(=N/NC(=O)Nc1ccccc1)CC[Se]2 | 4 (≈ 11.2 µM) | 8 (≈ 22.3 µM) | > 128 | 64 (≈ 179 µM) | 16 (≈ 44.7 µM) | – | – | – | –
Cc1ccc(NC(=S)N/N=C2\CC[Se]c3ccccc32)cc1 | 64 (≈ 171 µM) | 8 (≈ 21.4 µM) | > 128 | 8 (≈ 21.4 µM) | 128 (≈ 342 µM) | – | – | – | –
CCc1ccccc1NC(=O)N/N=C1\CC[Se]c2ccccc21 | > 128 | > 128 | > 128 | > 128 | > 128 | – | – | – | –
O=C(N/N=C1\CC[Se]c2ccc(F)cc21)Nc1cccc(Br)c1 | 64 (≈ 145 µM) | 16 (≈ 36.3 µM) | > 128 | 16 (≈ 36.3 µM) | > 128 | – | – | – | –
Cc1ccc2c(c1)/C(=N/NC(=O)Nc1ccccc1Cl)CC[Se]2 | 32 (≈ 81.5 µM) | 64 (≈ 163 µM) | > 128 | 64 (≈ 163 µM) | > 128 | – | – | – | –
Cc1ccc(NC(=S)N/N=C2\CC[Se]c3ccc(C)cc32)cc1 | 16 (≈ 41.2 µM) | 32 (≈ 82.4 µM) | > 128 | 64 (≈ 165 µM) | 8 (≈ 20.6 µM) | – | – | – | –
NNC(=S)N/N=C1\CC[Se]c2ccccc21 | 16 (≈ 53.5 µM) | 0.5 (≈ 1.67 µM) | > 128 | 8 (≈ 26.7 µM) | 1 (≈ 3.34 µM) | > 128 | > 128 | > 128 | 64 (≈ 214 µM)
Cc1ccc(C)c(NC(=S)N/N=C2\CC[Se]c3ccc(C)cc32)c1 | 2 (≈ 4.97 µM) | 16 (≈ 39.8 µM) | > 128 | 2 (≈ 4.97 µM) | 128 (≈ 318 µM) | – | – | – | –
CCOc1ccc(NC(=O)N/N=C2\CC[Se]c3ccc(F)cc32)cc1 | 4 (≈ 9.84 µM) | 32 (≈ 78.8 µM) | > 128 | 8 (≈ 19.7 µM) | 16 (≈ 39.4 µM) | – | – | – | –
COc1ccc(OC)c(NC(=S)N/N=C2\CC[Se]c3ccc(C)cc32)c1 | 32 (≈ 73.7 µM) | 32 (≈ 73.7 µM) | > 128 | 64 (≈ 147 µM) | 128 (≈ 295 µM) | – | – | – | –
Cc1ccc2c(c1)/C(=N/NC(=O)Nc1cc(Cl)cc(Cl)c1)CC[Se]2 | > 128 | > 128 | > 128 | > 128 | > 128 | – | – | – | –
COc1cccc(NC(=S)N/N=C2\CC[Se]c3ccccc32)c1 | 16 (≈ 41 µM) | 4 (≈ 10.2 µM) | > 128 | 16 (≈ 41 µM) | 2 (≈ 5.12 µM) | – | – | – | –
COc1cccc(NC(=S)N/N=C2\CC[Se]c3ccc(F)cc32)c1 | 16 (≈ 39.2 µM) | 1 (≈ 2.45 µM) | > 128 | 8 (≈ 19.6 µM) | 2 (≈ 4.9 µM) | – | – | – | –
OC(Cn1cncn1)(Cn1cncn1)c1ccc(F)cc1F [FLUCONAZOLE] | 1 (≈ 3.27 µM) | 1 (≈ 3.27 µM) | > 128 | 2 (≈ 6.53 µM) | 2 (≈ 6.53 µM) | 128 (≈ 418 µM) | > 128 | > 128 | 128 (≈ 418 µM)
